What was measured:
[1] = Inhibition of AmpC beta lactamase by spectrophotometry
[2] = Lipophilicity, log D of the compound; assay type: physicochemical; settings: octanol/water

| logD [2] | SMILES | Ki [1] [nM] |
| --- | --- | --- |
| – | Nc1cc(B(O)O)ccc1C(=O)O | 1800 |
| – | O=C(O)c1ccc(C(=O)Nc2cccc(S(=O)(=O)Nc3cc(B(O)O)ccc3C(=O)O)c2)cc1 | 100 |
| – | O=C(O)c1ccc(B(O)O)cc1NS(=O)(=O)c1cccc(S(=O)(=O)Nc2cc(B(O)O)ccc2C(=O)O)c1 | 23 |
| 0.026 | O=C(O)c1ccc(B(O)O)cc1NS(=O)(=O)c1cc(S(=O)(=O)c2ccccc2)cs1 | – |
| – | Cc1noc(C)c1S(=O)(=O)Nc1cc(B(O)O)ccc1C(=O)O | 350 |
| – | O=C(O)c1ccc(C(=O)Nc2ccc(S(=O)(=O)Nc3cccc(B(O)O)c3)cc2)cc1 | 450 |
| – | O=S(=O)(Nc1cccc(B(O)O)c1)c1cccc(S(=O)(=O)Nc2cccc(B(O)O)c2)c1 | 60 |

Source: ChEMBL document CHEMBL1155495, “Structural study of phenyl boronic acid derivatives as AmpC beta-lactamase inhibitors” (Bioorg Med Chem Lett, 2010)
